Experimental data published in ChEMBL document CHEMBL3885861, “Open TG-GATES”.

Species: Rattus norvegicus
Experiment: Open TG-GATES - Regimen: Single
Assay type: toxicity, organism-based, Sprague-Dawley
Set-up: regimen Single, gender Male, age 6 weeks
Settings: in vivo, po, 1 mg/kg, route gavage, dose level Low; for Bas / Eos / Fbg / Hb / Ht / Lym / MCHC / MCV / Mono / Neu / Plat / RBC / Ret / WBC: tissue Blood; for KIDNEY_TOTAL: tissue Kidney; for LIVER: tissue Liver; for ALT / AST / BUN / CRE / Ca / Cl / DBIL / GLC / IP / K / LDH / Na / PL / RALB / TBIL / TC / TP / gamma-GTP: tissue Plasma

## C[C@@H]1C[C@H]2[C@@H]3CCC4=CC(=O)C=C[C@]4(C)[C@@]3(F)[C@@H](O)C[C@]2(C)[C@@]1(O)C(=O)CO [DEXAMETHASONE]
3 h
  Bas: 0%
  Eos: 0.4%
  Fbg: 254 mg/dL
  Hb: 13.2 g/dL
  Ht: 40.3%
  Lym: 67%
  MCHC: 32.7%
  MCV: 64 fL
  Mono: 3.4%
  Neu: 29.2%
  Plat: 115.4 x10_4/uL
  RBC: 630 x10_4/ul
  Ret: 8.3%
  WBC: 45.1 x10_2/uL
  KIDNEY_TOTAL: 0.7 g
  LIVER: 11.2 g
  ALT: 43.2 IU/L
  AST: 72 IU/L
  BUN: 17 mg/dL
  CRE: 0.4 mg/dL
  Ca: 11.2 mg/dL
  Cl: 102.2 meq/L
  DBIL: 0.01 mg/dL
  GLC: 192.6 mg/dL
  IP: 12 mg/dL
  K: 4 meq/L
  LDH: 100.6 IU/L
  Na: 142.2 meq/L
  PL: 172 mg/dL
  RALB: 4.3 g/dL
  TBIL: 0.042 mg/dL
  TC: 102 mg/dL
  TP: 6.2 g/dL
  gamma-GTP: 1 IU/L
6 h
  TERMINAL_BW: 204.4 g
  Bas: 0%
  Eos: 0.2%
  Fbg: 250.2 mg/dL
  Hb: 13.1 g/dL
  Ht: 40.4%
  Lym: 59%
  MCHC: 32.6%
  MCV: 64.5 fL
  Mono: 3.2%
  Neu: 37.2%
  Plat: 113.5 x10_4/uL
  RBC: 627 x10_4/ul
  Ret: 6.5%
  WBC: 28.2 x10_2/uL
  KIDNEY_TOTAL: 0.5 g
  LIVER: 10.8 g
  ALT: 39 IU/L
  AST: 73.8 IU/L
  BUN: 17.4 mg/dL
  CRE: 0.4 mg/dL
  Ca: 10.9 mg/dL
  Cl: 102.8 meq/L
  DBIL: 0.008 mg/dL
  GLC: 215.8 mg/dL
  IP: 8.2 mg/dL
  K: 4.3 meq/L
  LDH: 91.4 IU/L
  Na: 138.6 meq/L
  PL: 179.4 mg/dL
  RALB: 4.4 g/dL
  TBIL: 0.038 mg/dL
  TC: 124.4 mg/dL
  TP: 6.3 g/dL
  gamma-GTP: 0 IU/L
9 h
  TERMINAL_BW: 198.1 g
  Bas: 0%
  Eos: 0.2%
  Fbg: 263.4 mg/dL
  Hb: 13.4 g/dL
  Ht: 40.9%
  Lym: 55.8%
  MCHC: 32.7%
  MCV: 64.7 fL
  Mono: 1.4%
  Neu: 42.4%
  Plat: 127.4 x10_4/uL
  RBC: 633 x10_4/ul
  Ret: 7.3%
  WBC: 28.3 x10_2/uL
  KIDNEY_TOTAL: 0.5 g
  LIVER: 10.7 g
  ALT: 38.8 IU/L
  AST: 76.6 IU/L
  BUN: 19.2 mg/dL
  CRE: 0.4 mg/dL
  Ca: 10.6 mg/dL
  Cl: 102 meq/L
  DBIL: 0.006 mg/dL
  GLC: 217 mg/dL
  IP: 7.8 mg/dL
  K: 4.4 meq/L
  LDH: 96.2 IU/L
  Na: 138 meq/L
  PL: 181.6 mg/dL
  RALB: 4.7 g/dL
  TBIL: 0.038 mg/dL
  TC: 126 mg/dL
  TP: 6.8 g/dL
  gamma-GTP: 0.8 IU/L
24 h
  TERMINAL_BW: 210.9 g
  Bas: 0%
  Eos: 0.8%
  Fbg: 239.6 mg/dL
  Hb: 13.8 g/dL
  Ht: 41.6%
  Lym: 61.4%
  MCHC: 33.1%
  MCV: 64.9 fL
  Mono: 4.8%
  Neu: 33%
  Plat: 122.7 x10_4/uL
  RBC: 642.2 x10_4/ul
  Ret: 5.8%
  WBC: 73.8 x10_2/uL
  KIDNEY_TOTAL: 0.5 g
  LIVER: 12 g
  ALT: 35.4 IU/L
  AST: 79.8 IU/L
  BUN: 16.4 mg/dL
  CRE: 0.4 mg/dL
  Ca: 10.9 mg/dL
  Cl: 99.8 meq/L
  DBIL: 0.016 mg/dL
  GLC: 191.8 mg/dL
  IP: 8 mg/dL
  K: 4.9 meq/L
  LDH: 110.2 IU/L
  Na: 139.2 meq/L
  PL: 219.2 mg/dL
  RALB: 4.6 g/dL
  TBIL: 0.046 mg/dL
  TC: 104.2 mg/dL
  TP: 6.4 g/dL
  gamma-GTP: 0 IU/L
